The results in this text go back to US10807964B2, “Benzothiophene-based selective estrogen receptor downregulators” (The Board of Trustees of the University of Illinois, priority 2015, dated 2020).

Series [1] can be described thus: Mouse plasma concentration after oral administration. Format: in vivo. The settings on record: average of three mice; for concentration at 0.5 h: 0.5 h after oral gavage at 100 mg/kg; for concentration at 4 h: 4 h after oral gavage at 100 mg/kg.
In another series the target is T1, estrogen receptor (Homo sapiens, UniProt P03372).
T1 construct: Whole-cell extracts of cultured cells were prepared in lysis buffer; endogenous in cells
T1 sequence (P03372 1-595): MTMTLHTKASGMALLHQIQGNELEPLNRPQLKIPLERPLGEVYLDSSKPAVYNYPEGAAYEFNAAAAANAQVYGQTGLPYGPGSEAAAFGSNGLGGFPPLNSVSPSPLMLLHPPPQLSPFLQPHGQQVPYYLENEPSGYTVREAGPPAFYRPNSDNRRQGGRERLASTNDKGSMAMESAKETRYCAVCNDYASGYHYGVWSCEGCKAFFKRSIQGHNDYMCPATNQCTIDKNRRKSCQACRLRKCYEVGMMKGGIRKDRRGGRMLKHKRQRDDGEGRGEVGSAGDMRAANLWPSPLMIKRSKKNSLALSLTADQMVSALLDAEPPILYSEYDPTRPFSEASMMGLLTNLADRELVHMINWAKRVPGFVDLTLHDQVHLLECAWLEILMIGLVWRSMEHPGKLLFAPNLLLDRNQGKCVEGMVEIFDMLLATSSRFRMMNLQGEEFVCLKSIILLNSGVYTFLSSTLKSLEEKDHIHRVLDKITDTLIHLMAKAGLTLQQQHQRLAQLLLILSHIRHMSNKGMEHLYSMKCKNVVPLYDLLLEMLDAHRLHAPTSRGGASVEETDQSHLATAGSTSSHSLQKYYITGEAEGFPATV
Nature of the series: Western blot of estrogen receptor downregulation (FIG. 4). Format: cell-based. The settings on record: 10 nM concentrations. Here is the method:
Whole-cell extracts of cultured cells were prepared in lysis buffer (200 mmol/L Tris, 1% Triton X-100, 5 mmol/L; EDTA) with protease and phosphatase inhibitor cocktails (1:50, both from Sigma-Aldrich) after scraping from the culture plates. Protein concentration was measured using the Bradford method (Bio-Rad). Proteins were separated under denaturing conditions and blotted onto nitrocellulose membrane (Bio-Rad) using a wet transfer system (Bio-Rad). Images of blots were acquired on a Bio-Rad ChemiDoc System following incubation with SuperSignal West Dura luminol solution (Thermo Fisher Scientific).

Another series relates to MCF-7:Tam1 tumors. Nature of the series: MCF-7:TAM1 xenograft model of endocrine-resistant ER+ breast cancer. Format: in vivo, ovariectomized athymic nude mice. The settings on record: 100 mg/kg daily by oral gavage; GDN-0810 at day 23 after treatment.
The next series addresses T2, ERα (Homo sapiens, UniProt P03372).
T2 construct: MCF-7:WS8 cells were kept in stripped medium 2 days; endogenous in cells; host or cells: MCF-7:WS8
T2 sequence (P03372 1-595): T1 sequence (P03372 1-595)
The series can be described thus: ER downregulation/degradation by in-cell western (ICW) in MCF-7:WS8 cells. Format: cell-based. The settings on record: Table 2; read-out: IC50 of ER downregulation from in-cell western blot experiments.

In series [1], `Cc1cccc(C)c1C(=O)c1sc2cc(O)ccc2c1Oc1ccc(/C=C/C(=O)O)cc1` [Compound 11, (E)-3-(4-((2-(2,6-Dimethylbenzoyl)-6-hydroxybenzo[b]thiophen-3-yl)oxy)phenyl) acrylic acid] registered a concentration at 0.5 h of 1010 nM and a concentration at 4 h of 0.5 nM.

As for `CCc1ccccc1C(=O)c1sc2cc(O)ccc2c1Oc1ccc(/C=C/C(=O)O)cc1` [Compound 3, (E)-3-(4-((2-(2-Ethylbenzoyl)-6-hydroxybenzo[b]thiophen-3-yl)oxy)phenyl) acrylic acid], the “Estrogen receptor downregulation, western blot” value (“Estrogen receptor downregulation” for short) on estrogen receptor is on record as “downregulate the estrogen receptor”.

`Cc1ccc(F)cc1C(=O)c1sc2cc(O)ccc2c1Oc1ccc(/C=C/C(=O)O)cc1` [Compound 6, (E)-3-(4-((2-(5-Fluoro-2-methylbenzoyl)-6-hydroxybenzo[b]thiophen-3-yl)oxy)phenyl) acrylic acid]: the “Estrogen receptor downregulation” value at estrogen receptor is “downregulate the estrogen receptor”.

Turning to `CC/C(=C(\c1ccccc1)c1ccc(OCCN(C)C)cc1)c1ccccc1` [Tamoxifen], the “Regression of tumor size (tumor area reduction)” value in the series with MCF-7:Tam1 tumors is recorded as “entirely without effect”.

With `Cc1ccccc1C(=O)c1sc2cc(O)ccc2c1Oc1ccc(/C=C/C(=O)O)cc1` [Compound 5, (E)-3-(4-((6-Hydroxy-2-(2-methylbenzoyl)benzo[b]thiophen-3-yl)oxy)phenyl) acrylic acid], the “Estrogen receptor downregulation” value at estrogen receptor was “downregulate the estrogen receptor”. In series [1], this molecule came in with a concentration at 0.5 h of 5580 nM and a concentration at 4 h of 47 nM.

As to `Cc1cc(F)ccc1C(=O)c1sc2cc(O)ccc2c1Oc1ccc(/C=C/C(=O)O)cc1` [Compound 1, (E)-3-(4-((2-(4-Fluoro-2-methylbenzoyl)-6-hydroxybenzo[b]thiophen-3-yl)oxy)phenyl)acrylic acid], the “Estrogen receptor downregulation” value on estrogen receptor is “downregulate the estrogen receptor”. Further, in series [1], the concentration at 0.5 h is 1240 nM and the concentration at 4 h is 145 nM.

For `Cc1cc(Cl)cc(C)c1C(=O)c1sc2cc(O)ccc2c1Oc1ccc(/C=C/C(=O)O)cc1` [Compound 21, (E)-3-(4-((2-(4-Chloro-2,6-dimethylbenzoyl)-6-hydroxybenzo[b]thiophen-3-yl)oxy)phenyl) acrylic acid], in series [1], the concentration at 4 h was 858 nM.

`Cc1cc(F)cc(C)c1C(=O)c1sc2cc(O)ccc2c1Oc1ccc(/C=C/C(=O)O)cc1` [Compound 20, (E)-3-(4-((2-(4-Fluoro-2,6-dimethylbenzoyl)-6-hydroxybenzo[b]thiophen-3-yl)oxy)phenyl) acrylic acid]: in series [1], the concentration at 0.5 h came to 9720 nM and the concentration at 4 h was determined as 164 nM.

As to `Cc1ccsc1C(=O)c1sc2cc(O)ccc2c1Oc1ccc(/C=C/C(=O)O)cc1` [Compound 7, (E)-3-(4-((6-Hydroxy-2-(3-methylthiophene-2-carbonyl)benzo[b]thiophen-3-yl)oxy)phenyl) acrylic acid], at estrogen receptor, the “Estrogen receptor downregulation” value is “downregulate the estrogen receptor”.

On to `Cc1ccc(C(=O)c2sc3cc(O)ccc3c2Oc2ccc(/C=C/C(=O)O)cc2)c(C)c1` [Compound 12, (E)-3-(4-((2-(2,4-Dimethylbenzoyl)-6-hydroxybenzo[b]thiopben-3-yl)oxy)phenyl) acrylic acid], for which, in series [1], the concentration at 0.5 h is 3870 nM and the concentration at 4 h turned out to be 432 nM.

As for `O=C(O)/C=C/c1ccc(Oc2c(C(=O)c3ccccc3)sc3cc(O)ccc23)cc1` [Compound 4, (E)-3-(4-((2-Benzoyl-6-hydroxybenzo[b]thiophen-3-yl)oxy)phenyl) acrylic acid], the DC50 on ERα was found to be 5 nM.
